Source: US12447156B2, “Treating progressive familial intrahepatic cholestasis (PFIC) with IBAT inhibitors” (ALBIREO AB, priority 2020, dated 2025)
Several values for one entry are separate records, joined by “and”; a condition that tells them apart may be missing. Identical values can stand only once.

System: children with PFIC1 or PFIC2
Assay: PEDFIC 1 phase 3 randomized, double-blind, placebo-controlled trial: efficacy (pruritus, serum bile acids, hepatic parameters, growth, sleep)
Type: in vivo, human
Conditions: for Proportion of Positive Pruritus Assessments Over the Treatment Period, Mean (SE) / Proportion of Positive Pruritus Assessments, Mean Difference vs Placebo (least squares means): 24 weeks; for least squares mean treatment difference vs placebo in proportion of positive pruritus assessments / least square mean proportion of positive pruritus assessments at the patient level: over 24 weeks; for least square mean proportion of positive pruritus assessments at the patient level: ObsRO
Experimental: Odevixibat is an orally administered, potent, luminally restricted, selective IBAT inhibitor in development to treat cholestatic liver diseases. In this phase 3, randomized, 24-week trial (PEDFIC 1), the efficacy and safety of odevixibat versus placebo was evaluated in children with PFIC1 or PFIC2. The efficacy of odevixibat in patients with PFIC was evaluated a 24-week, randomized, double-blind, placebo-controlled trial conducted in 62 patients with a confirmed diagnosis of PFIC Type 1 or Type 2 (NCT03566238; European Union (EU), 2017-002338-21; PEDFIC1; FIG. 1). Patients were randomized 1:1:1 to placebo, or 40 or 120 μg/kg odevixibat and stratified by PFIC Type (1 or 2) and age (6 months to 5 years, 6 to 12 years, and 13 to ≤18 years). Patients with pathologic variations of the ABCB11 gene that predict complete absence of the bile salt export pump (BSEP) protein and those with alanine aminotransferase (ALT)>10×ULN or bilirubin>5×ULN were excluded from the study.
The study consisted of a screening phase and parallel-design treatment period (FIG. 1). Two screening visits occurred: the first took place during days −56 to −35 prior to the first dose of study drug and the second occurred during days −28 to −7. On day 0, all eligible patients were randomized 1:1:1 to oral, once-daily placebo, 40 μg/kg/day odevixibat, or 120 μg/kg/day odevixibat. After written informed consent was obtained, an 8-digit patient identification number was assigned by the Interactive Web Response System (IWRS). The first two digits denoted country, followed by a 3-digit site number, and a 3-digit patient sequence number. The randomization codes were computer generated by a biostatistician at ICON Clinical Research Ltd (Dublin, Ireland) and kept by an unblinded statistician at Firma Clinical Research (Chicago, IL, USA), independent from the project team. Patients deemed eligible for randomization were assigned a unique 4 digit randomization number by the IWRS that identified which treatment was allocated to the patient. Randomization was done in a block size of six and stratified according to PFIC type 1 or 2 and age group (6 months to 5 years, 6 to 12 years, and 13 to ≤18 years) to ensure approximate balance between dose schemes (1:1:1). A separate randomization list was prepared for the patients who had taken part in study A4250-003, regardless of stratification. Randomization codes were assigned sequentially as patients became eligible for randomization. The IWRS system assigned a study drug number(s) corresponding to the randomization arm at each dispensing visit. A 5-digit study drug number identified study drug packs and was detailed on the study drug label.
Treatment was dispensed during on-site clinic visits, and patients or caregivers were instructed to take or administer the study drug at home each morning, either as an intact capsule(s) (swallowed with a glass of water and with food) or sprinkled on soft, room-temperature food (e.g., applesauce, followed by water). The double-blind PEDFIC 1 treatment period lasted 24 weeks.
Children (aged 0.5 to 18 years) with genetic confirmation of biallelic pathogenic mutations in the ATP8B1 (i.e., PFIC1) or ABCB11 genes (i.e., PFIC2), elevated serum bile acids (≥100 μmol/L), history of significant pruritus, and an average caregiver-reported observed scratching score ≥2 (calculated from daily electronic diary [eDiary] entries) in the 14 days prior to randomization, were eligible for inclusion. Additionally, caregivers or age-appropriate patients (≥8 years of age) agreed to use the eDiary device to record symptoms. Patients with two mutations in ABCB11 predicting a complete absence of functional bile salt export pump protein were excluded.
Two different primary endpoints were evaluated. The first primary endpoint in this study was the proportion of positive pruritus assessments at the patient level over the 24-week treatment period based on an observer-reported outcome (ObsRO) instrument. […]

With `CCCCC1(CCCC)CN(c2ccccc2)c2cc(SC)c(OCC(=O)N[C@@H](C(=O)N[C@@H](CC)C(=O)O)c3ccc(O)cc3)cc2S(=O)(=O)N1` [Odevixibat, 1,1-dioxo-3,3-dibutyl-5-phenyl-7-methylthio-8-(N-{(R)-α-[N-((S)-1-carboxypropyl)carbamoyl]-4-hydroxybenzyl}carbamoylmethoxy)-2,3,4,5-tetrahydro-1,2,5-benzothiadiazepine] the Patients with Reduction in Serum Bile Acids, % Difference vs Placebo (PEDFIC 1, 40 μg/kg/day) was 44.1%, the “mean percentage difference vs placebo in patients who met the serum bile acid reduction endpoint” value (PEDFIC 1, 40 μg/kg/day) was 44.1% and the “Proportion of Positive Pruritus Assessments Over the Treatment Period, Mean (SE)” value (PEDFIC 1, 40 μg/kg/day (n = 23)) was 58.31 (6.205). The “Proportion of Positive Pruritus Assessments, Mean Difference vs Placebo (least squares means)” value (PEDFIC 1, 40 μg/kg/day) was 28.23 (9.182), the “Autotaxin, change from baseline to week 24, mean” value (shortened to “Autotaxin, change from baseline”) (PEDFIC 1, 40 μg/kg/day, n 14) was -1698 ng/mL and the “APRI, change from baseline to week 24, mean” value (shortened to “APRI, change from baseline”) (PEDFIC 1, 40 μg/kg/day, n 15) was −0.1. For the same molecule, the “C4 (7alpha-hydroxy-4-cholesten-3-one), change from baseline to week 24, mean” value (PEDFIC 1, 40 μg/kg/day, n 15) was 15.7 ng/mL, the “FIB-4, change from baseline to week 24, mean” value (from here on “FIB-4, change from baseline”) (PEDFIC 1, 40 μg/kg/day, n 15) was 0.0 and the “PELD/MELD, change from baseline to week 24, mean” value (from here on “PELD/MELD, change from baseline”) (PEDFIC 1, 40 μg/kg/day, n 15) was −2.4. The “GGT, change from baseline to week 24, mean (SE)” value (from here on “GGT, change from baseline … (SE)”) (PEDFIC 1, 40 μg/kg/day, n 17) was −3 (2) U/L, the “Serum AST, change from baseline to week 24, mean” value (shortened to “Serum AST, change from baseline”) (PEDFIC 1, 40 μg/kg/day, n 17) was −37 U/L and the “Total bilirubin, change from baseline to week 24, mean” value (shortened to “Total bilirubin, change from baseline”) (PEDFIC 1, 40 μg/kg/day, n 17) was -1.4 mg/dL. For the same molecule, the “Proportion of Patients with Reduction in Serum Bile Acids at End of Treatment” value (“Proportion of Patients with Reduction” for short) (PEDFIC 1, 40 μg/kg/day, n = 23) was 10 (43.5) n (%), the “least squares mean treatment difference vs placebo in proportion of positive pruritus assessments” value (PEDFIC 1, 40 μg/kg/day) was 28.2% and the “least square mean proportion of positive pruritus assessments at the patient level” value (from here on “least square mean proportion”) (PEDFIC 1, 40 μg/kg/day) was 58%. For the same molecule, the “proportion of patients achieving a serum bile acid response (≥70% reduction or ≤70 μmol/L)” value (“proportion … (≥70% reduction or ≤70 μmol/L)” for short) (PEDFIC 1, 40 μg/kg/day, week 24) was 44%, the “mean (SE) change from baseline to end of treatment in height z-score” value (PEDFIC 1, 40 μg/kg/day, placebo 0.10 (0.102)) was 0.29 (0.106) and the “mean (SE) change from baseline to end of treatment in ALT” value (PEDFIC 1, 40 μg/kg/day, placebo 3.7 (4.95)) was −27.9 (17.97) U/L. For the same molecule, the “mean change from baseline to end of treatment in percentage of days sleeping with the caregiver” value (PEDFIC 1, 40 μg/kg/day, placebo −5.5%) was −49.4%, the “mean change from baseline to end of treatment in percentage of days requiring soothing” value (PEDFIC 1, 40 μg/kg/day, placebo −7.6%) was −51.5% and the Patients with Reduction in Serum Bile Acids, % Difference vs Placebo (PEDFIC 1, 120 μg/kg/day) was 21.6%. For the same molecule, the “mean (SE) change from baseline to end of treatment in ALT” value (PEDFIC 1, 120 μg/kg/day) was −25.3 (22.47) U/L, the “mean (SE) change from baseline to end of treatment in height z-score” value (PEDFIC 1, 120 μg/kg/day) was 0.15 (0.124) and the “mean change from baseline to end of treatment in percentage of days requiring soothing” value (PEDFIC 1, 120 μg/kg/day) was −34.9%. The “mean change from baseline to end of treatment in percentage of days sleeping with the caregiver” value (PEDFIC 1, 120 μg/kg/day) was −33.1%, the “mean percentage difference vs placebo in patients who met the serum bile acid reduction endpoint” value (PEDFIC 1, 120 μg/kg/day) was 21.6% and the “Proportion of Positive Pruritus Assessments Over the Treatment Period, Mean (SE)” value (PEDFIC 1, 120 μg/kg/day (n = 19)) was 47.69 (8.110). For the same molecule, the “Proportion of Positive Pruritus Assessments, Mean Difference vs Placebo (least squares means)” value (PEDFIC 1, 120 μg/kg/day) was 21.71 (9.892), the “APRI, change from baseline” value (PEDFIC 1, 120 μg/kg/day, n 8) was 0.0 and the “FIB-4, change from baseline” value (PEDFIC 1, 120 μg/kg/day, n 8) was 0.1. For the same molecule, the “Autotaxin, change from baseline” value (PEDFIC 1, 120 μg/kg/day, n 12) was -1018 ng/mL, the “C4 (7alpha-hydroxy-4-cholesten-3-one), change from baseline to week 24, mean” value (PEDFIC 1, 120 μg/kg/day, n 12) was 15.8 ng/mL and the “PELD/MELD, change from baseline” value (PEDFIC 1, 120 μg/kg/day, n 14) was −1.1. The “GGT, change from baseline … (SE)” value (PEDFIC 1, 120 μg/kg/day, n 15) was −1 (1) U/L, the “Serum AST, change from baseline” value (PEDFIC 1, 120 μg/kg/day, n 15) was −27 U/L and the “Total bilirubin, change from baseline” value (PEDFIC 1, 120 μg/kg/day, n 15) was -1.1 mg/dL. The “Proportion of Patients with Reduction” value (PEDFIC 1, 120 μg/kg/day, n = 19) was 4 (21.1) n (%), the “least squares mean treatment difference vs placebo in proportion of positive pruritus assessments” value (PEDFIC 1, 120 μg/kg/day) was 21.7% and the “least square mean proportion” value (PEDFIC 1, 120 μg/kg/day) was 52%. For the same molecule, the “proportion … (≥70% reduction or ≤70 μmol/L)” value (PEDFIC 1, 120 μg/kg/day, week 24) was 21%, the “percentage of days seeing blood due to scratching, number of awakenings, percentage of days taking medications to induce sleep: odevixibat vs placebo” value (PEDFIC 1, 24 weeks) was “no clear differences” and the “reduction of autotaxin levels” value (PEDFIC 1, 24 weeks of treatment) was “approximately half”. The Patients with Reduction in Serum Bile Acids, % Difference vs Placebo (PEDFIC 1, Total odevixibat) was 30.7%, the “Proportion of Positive Pruritus Assessments Over the Treatment Period, Mean (SE)” value (PEDFIC 1, Total odevixibat (N = 42), placebo 28.74 (5.209)) was 53.51 (5.006) and the “Proportion of Patients with Reduction” value (PEDFIC 1, Total odevixibat (N = 42), placebo 0) was 14 (33.3) n (%). For the same molecule, the “Proportion of Positive Pruritus Assessments, Mean Difference vs Placebo (least squares means)” value (PEDFIC 1, Total odevixibat) was 24.97 (8.240), the “patients undergoing surgical interruption of the enterohepatic circulation or liver transplantation” value (PEDFIC 1, all 62 patients, during the study) was “None” and the “mean (SE) change from baseline in ObsRO pruritus score (mean monthly)” value (PEDFIC 1, all doses, baseline to weeks 21 through 24, placebo −0.25 (0.2)) was −1.11 (0.2). For the same molecule, the “APRI, change from baseline” value (PEDFIC 1, all doses, n 23) was −0.1, the “FIB-4, change from baseline” value (PEDFIC 1, all doses, n 23) was 0.0 and the “Autotaxin, change from baseline” value (PEDFIC 1, all doses, n 26) was -1384 ng/mL. The “C4 (7alpha-hydroxy-4-cholesten-3-one), change from baseline to week 24, mean” value (PEDFIC 1, all doses, n 27) was 15.7 ng/mL, the “PELD/MELD, change from baseline” value (PEDFIC 1, all doses, n 29) was −1.8 and the “GGT, change from baseline … (SE)” value (PEDFIC 1, all doses, n 32) was −2 (1) U/L. For the same molecule, the “Serum AST, change from baseline” value (PEDFIC 1, all doses, n 32) was −32 U/L, the “Total bilirubin, change from baseline” value (PEDFIC 1, all doses, n 32) was -1.3 mg/dL and the “least square mean proportion” value (PEDFIC 1, all doses, placebo 30%) was 55% and 55.1%. The “proportion … (≥70% reduction or ≤70 μmol/L)” value (PEDFIC 1, all doses, week 24, placebo 0) was 33% and 33.3%, the “mean (SE) change in serum ALT” value (PEDFIC 1, all doses, week 24, placebo 3.7 (5.0)) was −26.7 (14.0) U/L and the “proportion of patients with clinically meaningful change in pruritus (≥1-point decrease, mean monthly score)” value (PEDFIC 1, all doses, week 24, placebo 11%) was 43%. The “mean change in serum bile acid levels” value (PEDFIC 1, all doses, weeks 22 through 24 / end of treatment, placebo +13.1) was -114.3 µmol/L, the “mean pruritus score change from baseline to end of treatment” value (PEDFIC 1, all doses, placebo −0.25, scale 0-4) was −1.13 and the “mean change in daytime tiredness score (0-4)” value (PEDFIC 1, odevixibat overall, baseline to weeks 21 to 24, placebo −0.49) was −0.99. The “mean change from baseline in percentage of days needing help falling asleep” value (PEDFIC 1, odevixibat overall, weeks 21 to 24, placebo −3%) was −43%, the “mean change from baseline in percentage of days sleeping with the caregiver” value (PEDFIC 1, odevixibat overall, weeks 21 to 24, placebo −6%) was −42% and the “mean change from baseline in percentage of days with soothing” value (PEDFIC 1, odevixibat overall, weeks 21 to 24, placebo −8%) was −44%. For the same molecule, the “mean (SE) change from baseline to week 24 in weight Z-score” value (PEDFIC 1, patients treated with odevixibat, placebo 0.1 (0.1)) was 0.2 (0.1), the “mean (SE) change from baseline to week 24 in height Z-score” value (PEDFIC 1, patients treated with odevixibat, placebo −0.2 (0.1)) was 0.0 (0.1) and the “proportion of patients who met serum bile acid response criteria” value (PEDFIC 1, patients with PFIC1, week 24) was 17%. For the same molecule, the “proportion of patients who met serum bile acid response criteria” value (PEDFIC 1, patients with PFIC2, week 24) was 40%.
